From patent US20040235747A1, “Methods of treating and/or preventing autoimmune diseases” (Ramot At Tel-Aviv University Ltd., priority 2003, published 2004)

Assays:
MOG-induced EAE mice = assay: MOG-induced chronic autoimmune encephalomyelitis (EAE), clinical score; assay type: in vivo, C57/b mice; details: NAP intranasal 0.1 microgram/mouse daily; day 11 on, P<0.01, t-test, vs control mixture without NAP (FIG. 1)
splenocytes = assay: Proliferative T-cell response of splenocytes (thymidine incorporation) from MOG-induced EAE mice; assay type: cell-based, mouse
Excerpt: FIG. 2 illustrates the thymidine incorporation into splenocytes in a MOG-induced mouse model in the presence (filled circles) or absence (open circles) of NAP.
An additional experiment included proliferative T-cell response performed as described by Offen et al., supra.

Asn-Ala-Pro-Val-Ser-Ile-Pro-Gln [NAP]
clinical outcome (clinical manifestations of EAE, score 0-6) (MOG-induced EAE mice): significantly improved the clinical outcome
proliferative response of splenocytes (cell proliferation, immune response) (splenocytes; MS model treated with NAP compared to untreated, P<0.01 (FIG. 2)): much reduced
effect of added MOG on splenocyte proliferation (splenocytes; splenocytes of NAP-treated animals, MOG up to 25 micrograms, untreated splenocytes showed increased proliferation even at 2 micrograms/well): no effect
